The structures appear in SMILES notation. “And” between values parts separate entries of the source, which are not always exact repeats. Equal entries are not always repeated. Where only a bound is given, the exact number is not on record here.

T1 sequence (P47871 26-477): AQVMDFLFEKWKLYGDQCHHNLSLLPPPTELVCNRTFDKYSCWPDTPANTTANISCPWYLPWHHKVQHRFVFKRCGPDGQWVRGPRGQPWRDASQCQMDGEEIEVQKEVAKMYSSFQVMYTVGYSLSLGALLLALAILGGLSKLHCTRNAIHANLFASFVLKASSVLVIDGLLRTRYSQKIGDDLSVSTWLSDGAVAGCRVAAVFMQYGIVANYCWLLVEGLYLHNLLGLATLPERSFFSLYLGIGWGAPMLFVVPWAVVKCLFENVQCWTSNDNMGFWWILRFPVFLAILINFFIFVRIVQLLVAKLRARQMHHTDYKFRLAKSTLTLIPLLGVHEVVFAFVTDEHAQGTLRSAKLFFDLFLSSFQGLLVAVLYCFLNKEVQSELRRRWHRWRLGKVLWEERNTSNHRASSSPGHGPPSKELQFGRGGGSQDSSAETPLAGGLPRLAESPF

One assay relates to GCG-mediated increases in blood glucose. Briefly: Glucagon challenge in vivo assay measuring blood glucose (normal dog glucagon challenge test). The following applies: 3 mg/kg oral gavage; fasted male beagle dogs; glucagon 5 μg/kg intramuscular 90 min after dosing. As to the method: Glucagon Challenge In Vivo Assay Measuring Blood Glucose
The efficacy of a glucagon receptor antagonist was evaluated using a normal dog glucagon challenge test. Male beagle dogs were overnight fasted prior to the study. Test compound (at 3 mg/kg and 10 mg/kg for Compound #196 and at 10 mg/kg for Compounds #180, #248 and #253) or vehicle (0.5% hydroxypropyl methylcellulose) was dosed via oral gavage. Ninety minutes later, the dogs (1.5 years old, ˜9 Kg) were submitted to a glucagon challenge test by a single intramuscular injection of glucagon (Glucagon, rDNA origin, Eli Lilly, Indianapolis, Ind.) at dose of 5 μg/kg. Blood glucose levels were determined at times −10 min, 0 min (on challenge), 10 min, 20 min, 30 min, and 60 min after glucagon injection.
For the molecule `Cc1cc2c(cnn2[C@@H](CC(C)C)c2ccc(C(=O)NCCC(=O)O)cc2)cc1-c1ccc(C(F)(F)F)cc1Cl` [Compound #196, 3-[[4-[(1S)-1-[5-[2-Chloro-4-(trifluoromethyl)phenyl]-6-methyl-indazol-1-yl]-3-methyl-butyl]benzoyl]amino]propanoic acid], the “inhibition of GCG-mediated increases in blood glucose vs vehicle” value (from here on “inhibition of GCG-mediated increases”) was found to be 5.9%.

The assay is the same for the next values; noted with them: 10 mg/kg oral gavage; fasted male beagle dogs; glucagon 5 μg/kg intramuscular 90 min after dosing.
Take `Cc1cc2c(cnn2[C@@H](CC(C)C)c2ccc(C(=O)NCCC(=O)O)cc2)cc1-c1ccc(C(F)(F)F)cc1Cl` [Compound #196, 3-[[4-[(1S)-1-[5-[2-Chloro-4-(trifluoromethyl)phenyl]-6-methyl-indazol-1-yl]-3-methyl-butyl]benzoyl]amino]propanoic acid]: the “inhibition of GCG-mediated increases” value was 23.9%.

Regarding `Cc1cc(C(F)(F)F)ccc1-c1cc2cn([C@@H](CC(C)C)c3ccc(C(=O)NCCC(=O)O)cc3)nc2cc1C` [Compound #248, 3-[[4-[(1 S)-3-Methyl-1-[6-methyl-5-[2-methyl-4-(trifluoromethyl)phenyl]indazol-2-yl]butyl]benzoyl]amino]propanoic acid], the “inhibition of GCG-mediated increases” value stood at 15%.

Another assay concerns the target T1, human GCGR (Homo sapiens, UniProt P47871).
T1 construct: expressed in transfected cells; host or cells: HEK293 (hGluc-1HEK), pcDNA3.1, G418 selection
The assay can be described thus: Cellular functional assay, cAMP readout (glucagon-stimulated cAMP, LANCE TR-FRET). It is filed as cell-based. The conditions noted are these: HEK293 cells stably expressing full-length human GCGR; glucagon 100 pM; IC50 converted to Ki; read-out: Inhibition of cAMP Ki.
As to `Cc1cc2c(cnn2[C@@H](CC(C)C)c2ccc(C(=O)NCCC(=O)O)cc2)cc1-c1ccc(C(F)(F)F)cc1Cl` [Compound #196, 3-[[4-[(1S)-1-[5-[2-Chloro-4-(trifluoromethyl)phenyl]-6-methyl-indazol-1-yl]-3-methyl-butyl]benzoyl]amino]propanoic acid], the Ki was found to be 0.032 µM.

Consider `Cc1cc(C(F)(F)F)ccc1-c1cc2cn([C@@H](CC(C)C)c3ccc(C(=O)NCCC(=O)O)cc3)nc2cc1C` [Compound #248, 3-[[4-[(1 S)-3-Methyl-1-[6-methyl-5-[2-methyl-4-(trifluoromethyl)phenyl]indazol-2-yl]butyl]benzoyl]amino]propanoic acid], for which the Ki amounted to 0.025 µM.

For `CCCC(c1ccc(C(=O)NCCC(=O)O)cc1)n1cc2cc(-c3ccc(C(C)(C)C)cc3)ccc2n1` (stereo not drawn) [Compound #22, 3-(4-(1-(5-(4-(tert-Butyl)phenyl)-2H-indazol-2-yl)butyl)benzamido)propanoic acid], the Ki was determined as 0.8 µM.

Take `CC(C)CC(c1ccc(C(=O)NCCC(=O)O)cc1)n1cc2cc(-c3cnc4ccccc4c3)ccc2n1` (stereo not drawn) [compound 117]: the Ki was 1 µM.

`CC(C)CC(c1ccc(C(=O)NCCC(=O)O)cc1)n1ncc2cc(-c3cc4ccccc4o3)ccc21` (stereo not drawn) [compound 77]: the Ki amounted to 0.135 µM.

Regarding `CCOc1c(-c2ccc(C(F)(F)F)cc2C)ccc2c1cnn2C(CC(C)C)c1ccc(C(=O)NCCC(=O)O)nc1` (stereo not drawn) [Compound #197, 3-(5-(1-(4-Ethoxy-5-(2-methyl-4-(trifluoromethyl)phenyl)-1H-indazol-1-yl)-3-methylbutyl)picolinamido)propanoic acid], the inhibitory constant (Ki) turned out to be 0.015 µM.

With `COc1ccc2sc(-c3ccc4c(cnn4C(CC(C)C)c4ccc(C(=O)NCCC(=O)O)cc4)c3)cc2c1` (stereo not drawn) [compound 132], the Ki is 0.23 µM.

In the case of `CCCCCC(c1ccc(C(=O)NCCC(=O)O)cc1)n1ncc2cc(-c3ccc(C(C)(C)C)cc3)ccc21` (stereo not drawn) [compound 88], the inhibition constant Ki was determined as 0.255 µM.

On to `COc1c(-c2ccc(Cl)cc2C)ccc2nn(C(CC(C)C)c3ccc(C(=O)NCCC(=O)O)cc3)cc12` (stereo not drawn) [Compound #64, 3-(4-(1-(5-(4-Chloro-2-methylphenyl)-4-methoxy-2H-indazol-2-yl)-3-methylbutyl)benzamido)propanoic acid], for which the Ki amounted to 0.037 µM.

As for `CCCCCC(c1ccc(C(=O)NCCC(=O)O)cc1)n1cc2cc(-c3ccc(C(C)(C)C)cc3)ccc2n1` (stereo not drawn) [compound 170], the Ki is 0.245 µM.

Regarding `Cc1cc(Cl)ccc1-c1ccc2nn(C(CC(C)(C)C)c3ccc(C(=O)NCCC(=O)O)cc3)cc2c1` (stereo not drawn) [compound 195], the Ki was 0.042 µM.

Consider `O=C(O)CCNC(=O)c1ccc(C(CC2CC2)n2ncc3cc(-c4ccc(C(F)(F)F)cc4)ccc32)cc1` (stereo not drawn) [compound 32], for which the Ki stood at 0.33 µM.

`COc1c(-c2ccc(C(F)(F)F)cc2C)ccc2c1cnn2[C@@H](CC(C)C)c1ccc(C(=O)NCCC(=O)O)cc1` [Compound #192, 3-[[4-[(1S)-1-[4-Methoxy-5-[2-methyl-4-(trifluoromethyl)phenyl]indazol-1-yl]-3-methyl-butyl]benzoyl]amino]propanoic acid]: the Ki was determined as 0.022 µM.

In the case of `O=C(O)CCNC(=O)c1ccc(C(CCC(F)(F)F)n2ncc3cc(-c4ccc(C(F)(F)F)c(Cl)c4)ccc32)cc1` (stereo not drawn) [Compound #111, 3-[[4-[1-[5-[3-Chloro-4-(trifluoromethyl)phenyl]indazol-1-yl]-4,4,4-trifluorobutyl]benzoyl]amino]propanoic acid], the inhibition constant Ki was > 1.3 µM.

Consider `CC(C)CC(c1ccc(C(=O)NCCC(=O)O)cc1)n1ncc2cc(-c3cc4ccc(F)cc4s3)ccc21` (stereo not drawn) [compound 126], for which the Ki was 0.28 µM.

Take `CC(C)CC(c1ccc(C(=O)NCCC(=O)O)nc1)n1cc2c(C(F)(F)F)c(-c3ccc(C(F)(F)F)cc3Cl)ccc2n1` (stereo not drawn) [compound 235]: the Ki was > 5.2 µM.

Take `Cc1c(-c2ccc(C(F)(F)F)cc2Cl)ccc2nn(C(CC(C)C)c3ccc(C(=O)NCCC(=O)O)cc3)cc12` (stereo not drawn) [Compound #18, 3-(4-(1-(5-(2-Chloro-4-(trifluoromethyl)phenyl)-4-methyl-2H-indazol-2-yl)-3-methylbutyl)benzamido)propanoic acid]: the Ki is 0.014 µM and 0.044 µM.

Regarding `Cc1cc(C(F)(F)F)ccc1-c1ccc2c(cnn2C(CCC(F)(F)F)c2ccc(C(=O)NCCC(=O)O)cc2)c1` (stereo not drawn) [Compound #44, 3-[[4-[4,4,4-Trifluoro-1-[5-[2-methyl-4-(trifluoromethyl)phenyl]indazol-1-yl]butyl]benzoyl]amino]propanoic acid], the inhibition constant (Ki) turned out to be 0.16 µM.

For the molecule `O=C(O)CCNC(=O)c1ccc(C(CC2CCCC2)n2cc3cc(-c4ccc(C(F)(F)F)cc4)ccc3n2)cn1` (stereo not drawn) [compound 188], the Ki is 0.165 µM.

`O=C(O)CCNC(=O)c1ccc(C(c2ccc(C(F)(F)F)cc2)n2ncc3cc(-c4ccc(C(F)(F)F)cc4)ccc32)cc1` (stereo not drawn) [Compound #101, 3-(4-((4-(Trifluoromethyl)phenyl)(5-(4-(trifluoromethyl)phenyl)-1H-indazol-1-yl)methyl)benzamido)propanoic acid]: the inhibitory constant (Ki) was found to be 0.8 µM.

Turning to `Cc1cc2nn(C(CC(C)C)c3ccc(C(=O)NCCC(=O)O)cc3)cc2cc1-c1ccc(C(F)(F)F)cc1Cl` (stereo not drawn) [Compound #95, 3-[[4-[1-[5-[2-Chloro-4-(trifluoromethyl)phenyl]-6-methyl-indazol-2-yl]-3-methyl-butyl]benzoyl]amino]propanoic acid], the Ki came to 0.052 µM.

As for `CC(C)(C)c1ccc(-c2ccc3nn(C(CC4CCCCC4)c4ccc(C(=O)NCCC(=O)O)cc4)cc3c2)cc1` (stereo not drawn) [Compound #228, 3-(4-(1-(5-(4-(tert-Butyl)phenyl)-2H-indazol-2-yl)-2-cyclohexylethyl)benzamido)propanoic acid], the Ki worked out at 0.13 µM.

For the molecule `Cc1cc2nn(C(CC(C)C)c3ccc(C(=O)NCCC(=O)O)cc3)cc2cc1-c1ccc(C(F)(F)F)cc1` (stereo not drawn) [Compound #134, 3-[[4-[3-Methyl-1-[6-methyl-5-[4-(trifluoromethyl)phenyl]indazol-2-yl]butyl]benzoyl]amino]propanoic acid], the Ki is 0.195 µM.

As to `O=C(O)CCNC(=O)c1ccc(C(CCC(F)(F)C(F)(F)F)n2ncc3cc(-c4ccc(C(F)(F)F)cc4)ccc32)cc1` (stereo not drawn) [compound 100], the Ki is 0.55 µM.

As to `CCCC(c1ccc(C(=O)NCCC(=O)O)cc1)n1cc2cc(-c3ccc(C(F)(F)F)cc3)ccc2n1` (stereo not drawn) [compound 91], the inhibitory constant (Ki) came to 0.125 µM.

For `O=C(O)CCNC(=O)c1ccc(C(CCC(F)(F)F)n2ncc3cc(-c4ccc(F)cc4Cl)ccc32)cc1` (stereo not drawn) [Compound #223, 3-(4-(1-(5-(2-Chloro-4-fluorophenyl)-1H-indazol-1-yl)-4,4,4-trifluorobutyl)benzamido)propanoic acid], the inhibition constant (Ki) stood at 0.95 µM.

Turning to `O=C(O)CCNC(=O)c1ccc(C(CCC(F)(F)F)n2cc3cc(-c4cc5ccccc5s4)ccc3n2)cc1` (stereo not drawn) [Compound #122, 3-[[4-[1-[5-(Benzothiophen-2-yl)indazol-2-yl]-4,4,4-trifluorobutyl]benzoyl]amino]propanoic acid], the Ki was 0.125 µM.

Source of the values: US10000473B2, “Indazole derivatives useful as glucagon receptor antagonists” (Janssen Pharmaceutica NV, priority 2016, dated 2018).
